Assay results from ChEMBL document CHEMBL4825698, “Identification of novel benzothiopyranones with ester and amide motifs derived from active metabolite as promising leads against Mycobacterium tuberculosis” (Eur J Med Chem, 2021).
Converted amounts (≈) assume the structure as drawn.

Legend:
[1] = system: Mycobacterium tuberculosis; assay: Antitubercular activity against isoniazid,streptomycin,rifampicin,ethambutol,para-aminosalicylate,prothionamide,capreomycin-resistant Mycobacterium tuberculosis clinical isolate 14862 assessed as bacterial growth inhibition incubated for 7 days by MABA assay; type: functional; settings: clinical isolate 14862, 168 h, time 7 day
[2] = system: Mycobacterium tuberculosis; assay: Antitubercular activity against isoniazid,streptomycin,rifampicin,ethambutol, rifabutin, para-aminosalicylat, ofloxacin-resistant Mycobacterium tuberculosis clinical isolate 13946 assessed as inhibition of bacterial growth incubated for 7 days by MABA assay; type: functional; settings: clinical isolate 13946, 168 h, time 7 day

| Compound | MIC [1] | MIC [2] |
| --- | --- | --- |
| O=c1cc(N2CCN(CC3CCC(OS(=O)(=O)c4cccnc4)CC3)CC2)sc2c([N+](=O)[O-])cc(C(F)(F)F)cc12 (centres undefined) | < 0.001 µg/mL | < 0.001 µg/mL |
| O=C(OC1CCC(CN2CCN(c3cc(=O)c4cc(C(F)(F)F)cc([N+](=O)[O-])c4s3)CC2)CC1)c1ccccc1 (centres undefined) | 0.162 µg/mL (≈ 0.281 µM) | 0.216 µg/mL (≈ 0.375 µM) |
| NNC(=O)c1ccncc1 [ISONIAZID] | > 10 µg/mL | > 10 µg/mL |
| O=c1cc(N2CCN(CC3CCC(OS(=O)(=O)c4ccccc4)CC3)CC2)sc2c([N+](=O)[O-])cc(C(F)(F)F)cc12 (centres undefined) | 0.002 µg/mL (≈ 0.00327 µM) | 0.001 µg/mL (≈ 0.00163 µM) |
| CC(=O)OC1CCC(CN2CCN(c3cc(=O)c4cc(C(F)(F)F)cc([N+](=O)[O-])c4s3)CC2)CC1 (centres undefined) | 0.062 µg/mL (≈ 0.121 µM) | 0.062 µg/mL (≈ 0.121 µM) |
| CO[C@H]1/C=C/O[C@@]2(C)Oc3c(C)c(O)c4c(O)c(c(/C=N/N5CCN(C)CC5)c(O)c4c3C2=O)NC(=O)/C(C)=C\C=C\[C@H](C)[C@H](O)[C@@H](C)[C@@H](O)[C@@H](C)[C@H](OC(C)=O)[C@@H]1C [RIFAMPIN] | > 10 µg/mL | > 10 µg/mL |
| CS(=O)(=O)OC1CCC(CN2CCN(c3cc(=O)c4cc(C(F)(F)F)cc([N+](=O)[O-])c4s3)CC2)CC1 (centres undefined) | 0.001 µg/mL (≈ 0.00182 µM) | < 0.001 µg/mL |
